Test results from publication PMC4389225, “Triaminopyrimidine is a fast-killing and long-acting antimalarial clinical candidate” (Nature Communications, 2015).
Read-outs that look alike come from different tables or passages of the source.

What was measured:
[1] = Dog plasma PK, IV and oral; type: in vivo; conditions: male, Beagle; for clearance / AUC(0-inf) / AUC(0-t) / Cmax / MRT / half-life / Vd / bioavailability: dog; for half-life: read-out: t½ (converted); for Vd: read-out: Vss
Description: Pharmacokinetic studies to estimate the blood levels of compounds in dogs. PK in fasted, male Beagle dogs (n = 2 per dose) was studied after a single dose administered by intravenous infusion for 15 min (IV) or by an oral route (PO). Solution formulation containing 10% ethanol, 30% PEG 400, 60% saline was used for IV administration and a suspension in 0.5% w/v HPMC with 0.1% v/v Tween 80 was used for oral administration.
48 hours after an oral dose of 5 mg/kg. Blood samples were centrifuged and plasma samples were analyzed by LC/MS/MS. Dog PK profiles are shown in supplementary Fig. 11 and PK parameters are described in supplementary Table 9.

[2] = PK in the blood of infected Pf/SCID mice; type: in vivo, mouse
Description: Peripheral blood samples (25 μl) were taken at different times (0.25, 0.5, 1, 2, 4, 6, 8 and 23 h), mixed with 25 μl of H2O Mili-Q and immediately frozen on dry ice. The frozen samples were stored at −80 °C until analysis. Vehicle-treated mice experienced the same blood-sampling regimen. Blood samples were processed by liquid–liquid extraction by mixing 10 μl diluted blood with 180 μl AcN:MeOH (80:20; v-v) mixture. Quantitative analysis by Liquid chromatography-tandem mass spectrometry (LC-MS/MS) was performed using UPLC (Waters) and Sciex API4000. The lower limit of quantification in this assay was 0.005 μg ml^−1.

Dd2 = assay: SYBR green growth assay, Dd2 (parental); type: cell-based, P. falciparum; conditions: Plasmodium falciparum, DD2, Dd2 parental; mean ± SD, Supplementary Table 13
Description: To eliminate overlapping mode of action with known targets, cross-resistance testing of representative TAPs against drug-resistant lines with well-characterized mutations in Pf dihydroorotate dehydrogenase, Pf heat-shock protein 90, Pf chloroquine resistance transporter[25] or Pf cytochrome b reduction site[26] was performed. […] Assays were carried out in 384-well format with three technical replicates within an assay day and biological replicates carried out on three different assay days to assign a final EC50.
A representative TAP (compound 6) was tested for its activity against a panel of P. falciparum strains known to harbour mutations conferring resistance to antimalarial agents under development. Artesunate and amodiaquine were included as additional control […]
Values are the means ± standard deviation derived from three independent assays performed

Dd2 DHODH DSM265 = assay: [3H]-hypoxanthine incorporation assay, Dd2 DHODH DSM265 resistant; type: cell-based; conditions: Plasmodium falciparum
Description: Supplementary Table 3: Compound 9 and 12 retain their activity against Pf strains harbouring mutations to novel antimalarial agents in clinical development. Compound 9 and 12 were tested for their antiplasmodial activity against a panel of Pf strains known to harbour mutations conferring resistance to novel agents under clinical development. Parasite growth inhibition is measured using the [3H]-hypoxanthine incorporation assay. IC50s are established for each strain (n ≥2) and compared to the IC50 of Dd2 (standard pan-resistant […]

[3] = Blood-plasma ratio, human; type: in vitro ADME
Source text: Supplementary Note 5: Prediction of human clearance for compound 12 by IVIVE.
Human clearance (CL) was predicted by in vitro-in vivo extrapolation (IVIVE) from the in vitro Clint in human hepatocytes6. In vitro Clint was scaled to in vivo Clint as follows:
Clint in vivo = Clint in vitro * scaling factors * fublood/fuinc
The liver weights used for scaling were 40, 32 and 24 g/kg body weight in rat, dog and human respectively. Hepatocellularity used for scaling was 163, 169 and 120 (X 106) cells/g liver in rat, dog and human respectively. Free fraction in blood was calculated as fuplasma /Blood:Plasma (BP) ratio. BP ratio and free fraction in the hepatocyte incubation mix, fuinc, were measured in vitro. Slope and intercept from the linear regression analysis of IVIVC for a large number of AstraZeneca compounds was applied for final correction in the scaled in vivo Clint. A well stirred model was used for CL prediction.
Where Qh is the liver blood flow. The values of Qh in rat, dog and human are 72, 55 and 20 mL.min-1kg-1 in rat, dog and human, respectively. In vitro parameters, observed in vivo CL and predicted CL are shown in supplementary Table 10. […]
(also on this page, place not known: in vivo in vivo CLintQ CLintQCL Predicted predicted predicted h h + ×=)
(1 picture or pasted object on this page, not shown here)

Dd2-6R F2 D8 = assay: SYBR green growth assay, Dd2-6R F2 D8; conditions: Plasmodium falciparum
Source text: (§1) The drug was then washed off and the parasites were allowed to recover in normal growth media.

Dd2-6R F4 G7 = assay: SYBR green growth assay, Dd2-6R F4 G7; conditions: Plasmodium falciparum
Source text: as §1

[4] = plasma, iv, 2.1 mg/kg, IV 2.1 mg kg-1, Dog 1
[5] = plasma, iv, 2.1 mg/kg, IV 2.1 mg kg-1, Dog 2
[6] = plasma, iv, 2.1 mg/kg, IV 2.1 mg kg-1, Mean
[7] = plasma, po, 5.1 mg/kg, Oral 5.1 mg kg-1, Dog 1
[8] = plasma, po, 5.1 mg/kg, Oral 5.1 mg kg-1, Dog 2
[9] = plasma, po, 5.1 mg/kg, Oral 5.1 mg kg-1, Mean

Cc1nc(Nc2ncc(N3CCN(C)[C@H](C)C3)c(Nc3cc(C)n(C)n3)n2)cc(C2CC2)c1F [compound 12, (R)-N2-(4-cyclopropyl-5-fluoro-6-methylpyridin-2-yl)-N4-(1,5-dimethyl-1H-pyrazol-3-yl)-5-(3,4-dimethylpiperazin-1-yl)pyrimidine-2,4-diamine]
clearance ([1]; blood, iv, 2.1 mg kg-1, Dog, read-out: Observed blood CL): 19 mL/min/kg
AUC(0-inf) [1, 4]: 2.72 µM·h
AUC(0-t) [1, 4]: 2.16 µM·h
Cmax [1, 4]: 641 nM
MRT [1, 4]: 15.1 h
half-life [1, 4]: 11 h
AUC(0-inf) [1, 5]: 3.47 µM·h
AUC(0-t) [1, 5]: 2.68 µM·h
Cmax [1, 5]: 515 nM
MRT [1, 5]: 15.9 h
half-life [1, 5]: 11 h
AUC(0-inf) [1, 6]: 3.1 µM·h
AUC(0-t) [1, 6]: 2.42 µM·h
Cmax [1, 6]: 578 nM
MRT [1, 6]: 15.5 h
half-life [1, 6]: 11 h
clearance ([1]; plasma, iv, 2.1 mg/kg, plasma, IV 2.1 mg kg-1, Dog 1, read-out: CL): 27.5 mL/min/kg
Vd ([1]; plasma, iv, 2.1 mg/kg, plasma, IV 2.1 mg kg-1, Dog 1): 24.9 L/kg
clearance ([1]; plasma, iv, 2.1 mg/kg, plasma, IV 2.1 mg kg-1, Dog 2, read-out: CL): 21.3 mL/min/kg
Vd ([1]; plasma, iv, 2.1 mg/kg, plasma, IV 2.1 mg kg-1, Dog 2): 20.4 L/kg
clearance ([1]; plasma, iv, 2.1 mg/kg, plasma, IV 2.1 mg kg-1, Mean, read-out: CL): 24.4 mL/min/kg
Vd ([1]; plasma, iv, 2.1 mg/kg, plasma, IV 2.1 mg kg-1, Mean): 22.7 L/kg
AUC(0-inf) [1, 7]: 5.87 µM·h
AUC(0-t) [1, 7]: 5.27 µM·h
Cmax [1, 7]: 300 nM
bioavailability [1, 7]: 88.1%
half-life [1, 7]: 15.2 h
AUC(0-inf) [1, 8]: 8.28 µM·h
AUC(0-t) [1, 8]: 7.48 µM·h
Cmax [1, 8]: 603 nM
bioavailability [1, 8]: 96.4%
half-life [1, 8]: 17 h
AUC(0-inf) [1, 9]: 7.08 µM·h
AUC(0-t) [1, 9]: 6.38 µM·h
Cmax [1, 9]: 452 nM
bioavailability [1, 9]: 92.3%
half-life [1, 9]: 16.1 h
Tmax ([1]; plasma, Oral 5.1 mg kg-1, Dog 1): 2 h
CL/F ([2]; SCID, mouse, whole blood, oral, parent, Fixed): 650 mL/min/kg
Blood Cmin (minimum parasiticidal concentration, MPC) ([2]; at 40 mg kg^−1): 40 nM
Ka ([2]; parent, Fixed): 1 h⁻¹
Ke0 ([2]; parent, Fixed): 0.06 h⁻¹
Vc/F ([2]; parent, Fixed): 462 L/kg
IC50 (Dd2): 16.1 ± 1 nM
IC50 (Dd2 DHODH DSM265): 6.5 nM
B:P ratio [3]: 1.3
IC50 (Dd2-6R F2 D8): 69.6 nM
IC50 (Dd2-6R F4 G7): 90.7 nM
